# Read-outs that look alike come from different tables or passages of the source.
# Tests used:
# [1] = target: T1, HCV NS5B polymerase 1a-H77-C316Y (Hepatitis C virus genotype 1a, UniProt P27958, C2736Y); assay: biochemical; design: species or system HCV genotype 1a
# T1 construct: six-histidine tag; made in house; host or cells: E. coli
# Experimental: (§1) Purified HCV NS5B polymerase enzymes were used for polymerase inhibition assays. All recombinant HCV polymerases contained the first 570 amino acids of the 591 amino acid native protein sequence and a six-histidine tag at the N-terminus or C-terminus to facilitate purification by affinity chromatography. The DNA nucleotide sequence for the HCV polymerase 1b BK strain was codon optimized for expression in E. coli. A synthetic gene was prepared from a series of overlapping oligonucleotides that were filled in using a DNA polymerase and amplified by PCR. The patient isolate HCV polymerases were cloned by RT-PCR methods using HCV RNA extracted from the serum of infected subjects obtained from ProMedDx and BioCollections (genotypes 2a, 2b, 3a, and 4a). Laboratory strains were cloned from plasmid DNA (1a-H77 or 1a-H77-C316Y) or from existing replicon cells (1b Rice). In all cases the amplified DNA was cloned into a protein expression vector (typically a pET vector from Novagen) and then multiple clones were sequenced to identify one whose NS5B sequence agreed with the population sequence. This sequence-confirmed clone was then transfected into E. coli for protein expression and purification. E. coli cultures were grown to a maximum optical density (OD) of 2-3 and then induced with 0.4 mM isopropyl beta-D-thiogalactopyranoside (IPTG) and grown for 20 hours at 20° C.
# (§2) Proteins were purified using nickel affinity chromatography, and additional column steps were added including, ion exchange, size exclusion, hydrophobic ion, and poly-U affinity chromatography, as needed, depending on the sample being purified. The template RNA used in the polymerase enzymatic assay was a 2.1 kb construct that corresponds to the 3′-end of an HCV genotype 1b negative strand RNA.
# (§3) The reaction was initiated by the addition of 20 μM CTP, 20 μM ATP, 0.284 μM (0.5 μCi) of 5,6-[^3H] UTP, 5 nM template RNA and 0.1 U/μL RNase inhibitor (RNasin, Promega), and allowed to proceed for three hours at 30° C. The final reaction volume was 50 μL. The reaction was terminated by the addition of 50 uL of 4 mM spermine in 10 mM Tris-HCl, pH 7.5, 1 mM EDTA. The quenched reaction was allowed to incubate for at least 15 minutes at room temperature, and then the precipitated RNA was captured by filtration through a glass fiber filter (GF/B, Millipore) in a 96 well format. The filter plate was washed five times with 200 μL of 2 mM spermine, 10 mM Tris-HCl, pH 8.0, 1 mM EDTA, and two times with ethanol. After drying thoroughly in air, 30 μL of Microscint-20 scintillation cocktail (Perkin Elmer) was added to each well, and the retained cpm were determined by scintillation counting. IC50 values were determined by nonlinear regression.
# (§4) % Inhibition=100*[[I]/([I]+[IC50])] equation 1
# (§5) V=kcat[S]/2(Km+[S])*(sqrt((IC50+I−E)̂2+(4*IC50*E))−(IC50+I−E)) equation 2
# [2] = tested on: HCV NS5B polymerase 1a-H77-C316Y; assay: biochemical; design: species or system HCV genotype 1a; conditions: ratio of enzyme IC50s, 1a H77-C316Y / 1a H77
# Experimental: as §1, §2, §3, §4, §5
# [3] = target: T2, HCV NS5B polymerase 1a-H77 (Hepatitis C virus genotype 1a, UniProt P27958); assay: biochemical; design: species or system HCV genotype 1a; conditions: enzyme, strain 1a H77; read-out: HCV Polymerase Strain 1a H77 IC50
# T2 construct: six-histidine tag; made in house; host or cells: E. coli
# T2 sequence (P27958 2421-2990): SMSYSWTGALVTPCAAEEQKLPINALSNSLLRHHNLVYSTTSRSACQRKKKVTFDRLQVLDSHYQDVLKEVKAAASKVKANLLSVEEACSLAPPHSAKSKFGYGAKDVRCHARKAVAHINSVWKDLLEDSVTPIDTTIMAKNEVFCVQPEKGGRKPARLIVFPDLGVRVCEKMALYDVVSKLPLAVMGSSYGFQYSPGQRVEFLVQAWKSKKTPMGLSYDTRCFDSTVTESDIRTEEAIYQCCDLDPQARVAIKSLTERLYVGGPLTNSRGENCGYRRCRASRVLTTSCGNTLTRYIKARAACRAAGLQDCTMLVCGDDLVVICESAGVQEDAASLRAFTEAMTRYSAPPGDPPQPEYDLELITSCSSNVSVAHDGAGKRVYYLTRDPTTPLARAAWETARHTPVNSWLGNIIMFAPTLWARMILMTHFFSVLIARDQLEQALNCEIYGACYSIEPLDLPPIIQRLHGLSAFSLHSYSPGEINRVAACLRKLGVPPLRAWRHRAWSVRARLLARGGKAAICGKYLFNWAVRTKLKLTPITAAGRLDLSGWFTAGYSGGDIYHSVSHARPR
# Experimental: as §1, §2, §3, §4, §5
# [4] = target: T3, HCV NS5B polymerase 1b BK strain (Hepatitis C virus genotype 1b, UniProt P26663); assay: HCV NS5B polymerase enzymatic inhibition assay, strain 1b BK; type: biochemical; conditions: enzyme, strain 1b BK; read-out: HCV Polymerase Strain 1b BK IC50
# T3 construct: six-histidine tag; made in house; host or cells: E. coli
# T3 sequence (P26663 2420-2989): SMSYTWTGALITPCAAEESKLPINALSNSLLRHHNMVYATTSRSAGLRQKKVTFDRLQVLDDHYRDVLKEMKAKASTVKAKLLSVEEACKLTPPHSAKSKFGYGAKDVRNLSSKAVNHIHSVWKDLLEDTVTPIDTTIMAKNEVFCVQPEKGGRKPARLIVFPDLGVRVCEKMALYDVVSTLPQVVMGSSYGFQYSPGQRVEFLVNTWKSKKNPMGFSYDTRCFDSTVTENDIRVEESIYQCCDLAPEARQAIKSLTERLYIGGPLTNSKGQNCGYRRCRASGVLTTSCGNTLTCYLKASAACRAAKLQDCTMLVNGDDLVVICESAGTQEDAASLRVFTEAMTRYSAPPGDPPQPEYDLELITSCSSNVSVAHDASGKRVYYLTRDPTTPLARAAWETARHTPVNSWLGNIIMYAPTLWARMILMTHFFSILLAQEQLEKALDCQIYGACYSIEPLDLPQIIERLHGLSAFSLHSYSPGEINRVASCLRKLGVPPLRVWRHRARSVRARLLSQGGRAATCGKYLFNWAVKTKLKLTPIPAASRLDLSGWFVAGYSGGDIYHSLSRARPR
# Experimental: as §1, §2, §3, §4, §5
# [5] = tested on: HCV 1a-H77 subgenomic replicon; assay: microbe, parasite or virus in culture; type: cell-based, HCV genotype 1a; conditions: Hepatitis C virus, stable replicon
# [6] = tested on: HCV 1b-BB7 subgenomic replicon; assay: microbe, parasite or virus in culture; type: cell-based, HCV genotype 1b; conditions: Hepatitis C virus, stable replicon
# [7] = 5% FBS, absence of human plasma, read-out: Stable Replicon 1a H77 5% FBS EC50
# [8] = strain 1a H77, 5% FBS + 40% human plasma, read-out: 1a H77 5% FBS + 40% Human Plasma EC50
# [9] = strain 1a H77, 5% FBS, no human plasma, read-out: 1a H77 5% FBS EC50
# [10] = strain 1a H77, 5% FBS, read-out: 1a H77 5% FBS EC50
# [11] = strain 1b BB7, 5% FBS + 40% human plasma, read-out: 1b BB7 5% FBS + 40% Human Plasma EC50
# [12] = strain 1b BB7, 5% FBS, no human plasma, read-out: 1b BB7 5% FBS EC50
# [13] = strain 1b BB7, 5% FBS, read-out: 1b BB7 5% FBS EC50
# T1 sequence (P27958 2421-2990 C2736Y): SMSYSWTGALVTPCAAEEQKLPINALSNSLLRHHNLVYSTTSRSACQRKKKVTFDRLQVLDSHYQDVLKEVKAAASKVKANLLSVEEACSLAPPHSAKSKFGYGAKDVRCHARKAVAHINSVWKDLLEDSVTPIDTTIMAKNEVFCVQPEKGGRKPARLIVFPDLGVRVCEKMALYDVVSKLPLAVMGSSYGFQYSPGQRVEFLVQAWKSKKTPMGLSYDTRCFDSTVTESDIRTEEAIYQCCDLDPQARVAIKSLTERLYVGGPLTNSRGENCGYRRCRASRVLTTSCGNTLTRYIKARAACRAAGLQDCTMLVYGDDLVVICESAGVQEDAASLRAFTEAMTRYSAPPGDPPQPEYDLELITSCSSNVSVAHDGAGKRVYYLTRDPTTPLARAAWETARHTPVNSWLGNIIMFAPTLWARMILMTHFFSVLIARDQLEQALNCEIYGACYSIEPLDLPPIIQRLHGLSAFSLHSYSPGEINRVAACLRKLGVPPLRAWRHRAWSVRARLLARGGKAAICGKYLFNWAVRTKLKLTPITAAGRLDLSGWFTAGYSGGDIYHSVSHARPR
SMILES,IC50 [1] [µM],C316Y/1a Fold Resistance [2] [fold],IC50 [3] [µM],IC50 [4] [µM],"EC50 [5, 7] [µM]","EC50 [5, 8] [µM]","EC50 [5, 9] [µM]","EC50 [5, 10] [µM]","EC50 [6, 11] [µM]","EC50 [6, 12] [µM]","EC50 [6, 13] [µM]"
"COc1ccc(CN(c2cc3oc(-c4ccc(F)cc4)c(C4=NC(C)CN4)c3cc2C2CC2)S(C)(=O)=O)cc1 (centres unmarked) [Example 2a, N-[5-cyclopropyl-2-(4-fluorophenyl)-3-(4-methyl-4,5-dihydro-1H-imidazol-2-yl)-1-benzofuran-6-yl]-N-(4-methoxybenzyl)methanesulfonamide]",0.224,15,0.015,0.055,–,–,–,–,–,–,–
"CC(C)(C)[Si](C)(C)OCCCCN(c1cc2oc(-c3ccc(F)cc3)c(-c3ncc[nH]3)c2cc1C1CC1)S(C)(=O)=O [Example 42, N-(4-{[tert-butyl(dimethyl)silyl]oxy}butyl)-N-[5-cyclopropyl-2-(4-fluorophenyl)-3-(1H-imidazol-2-yl)-1-benzofuran-6-yl]methanesulfonamide]",–,–,0.083,0.781,0.214,7.41,0.214,0.214,3.39,0.119,0.119
"CS(=O)(=O)N(CN1C(=O)c2ccccc2C1=O)c1cc2oc(-c3ccc(F)cc3)c(-c3ncc[nH]3)c2cc1C1CC1 [Example 82, N-[5-cyclopropyl-2-(4-fluorophenyl)-3-(1H-imidazol-2-yl)-1-benzofuran-6-yl]-N-[(1,3-dioxo-1,3-dihydro-2H-isoindol-2-yl)methyl]methanesulfonamide]",–,–,0.35,3,2.63,–,2.63,2.63,–,1.58,1.58
"CC(C)CCN(c1cc2oc(-c3ccc(F)cc3)c(C3=NOC(C)(C)N3)c2cc1C1CC1)S(C)(=O)=O [Example 152, N-[5-cyclopropyl-3-(5,5-dimethyl-4,5-dihydro-1,2,4-oxadiazol-3-yl)-2-(4-fluorophenyl)-1-benzofuran-6-yl]-N-(3-methylbutyl)methanesulfonamide]",–,–,0.118,3.6,10,–,10,10,–,10,10
"CCCc1nc(-c2c(-c3ccc(F)cc3)oc3cc(N(CCC(C)C)S(C)(=O)=O)c(C4CC4)cc23)no1 [Example 153, N-[5-cyclopropyl-2-(4-fluorophenyl)-3-(5-propyl-1,2,4-oxadiazol-3-yl)-1-benzofuran-6-yl]-N-(3-methylbutyl)methanesulfonamide]",–,–,179,200,–,–,–,–,–,–,–
"CCCC1NC(c2c(-c3ccc(F)cc3)oc3cc(N(CCC(C)C)S(C)(=O)=O)c(C4CC4)cc23)=NO1 (centres unmarked) [Example 154, N-[5-cyclopropyl-2-(4-fluorophenyl)-3-(5-propyl-4,5-dihydro-1,2,4-oxadiazol-3-yl)-1-benzofuran-6-yl]-N-(3-methylbutyl)methanesulfonamide]",–,–,21.3,63.3,–,–,–,–,–,–,–
"CCC1NC(c2c(-c3ccc(F)cc3)oc3cc(N(CCC(C)C)S(C)(=O)=O)c(C4CC4)cc23)=NO1 (centres unmarked) [Example 155, N-[5-cyclopropyl-3-(5-ethyl-4,5-dihydro-1,2,4-oxadiazol-3-yl)-2-(4-fluorophenyl)-1-benzofuran-6-yl]-N-(3-methylbutyl)methanesulfonamide]",0.554,10,0.053,–,3.06,10,3.06,3.06,10,6.25,6.25
"COc1ccc(CN(c2cc3oc(-c4ccc(F)cc4)c(C4=NOCC(=O)N4)c3cc2C2CC2)S(C)(=O)=O)cc1 [Example 160, N-[5-cyclopropyl-2-(4-fluorophenyl)-3-(5-oxo-5,6-dihydro-4H-1,2,4-oxadiazin-3-yl)-1-benzofuran-6-yl]-N-(4-methoxybenzyl)methanesulfonamide]",–,–,0.11,0.93,2.16,10,2.16,2.16,9.28,0.604,0.604
"CS(=O)(=O)Nc1cc2oc(-c3ccc(F)cc3)c(-c3nc(Cl)c(Cl)[nH]3)c2cc1C1CC1 [Example 163, N-[5-cyclopropyl-3-(4,5-dichloro-1H-imidazol-2-yl)-2-(4-fluorophenyl)-1-benzofuran-6-yl]methanesulfonamide]",–,–,0.212,0.555,7.83,10,7.83,7.83,10,5.4,5.4
"CS(=O)(=O)Nc1cc2oc(-c3ccc(F)cc3)c(-c3nc(Cl)c[nH]3)c2cc1C1CC1 [Example 164, N-[3-(4-chloro-1H-imidazol-2-yl)-5-cyclopropyl-2-(4-fluorophenyl)-1-benzofuran-6-yl]methanesulfonamide]",–,–,0.136,0.906,1,10,1,1,10,1,1
"CS(=O)(=O)Nc1cc2oc(-c3ccc(F)cc3)c(-c3nc(Br)c(Br)[nH]3)c2cc1C1CC1 [Example 165, N-[5-cyclopropyl-3-(4,5-dibromo-1H-imidazol-2-yl)-2-(4-fluorophenyl)-1-benzofuran-6-yl]methanesulfonamide]",–,–,1.5,2.7,–,–,–,–,–,–,–
"Cc1ccc(C)n1-c1ccc2c(-c3ncc[nH]3)c(-c3ccccc3)oc2c1 [Example 166, 2-[6-(2,5-dimethyl-1H-pyrrol-1-yl)-2-phenyl-1-benzofuran-3-yl]-1H-imidazole]",–,–,1.6,7,–,–,–,–,–,–,–
"CC(C)CCN(c1cc2oc(-c3ccc(F)cc3)c(-c3nc(C(F)(F)F)c[nH]3)c2cc1C1CC1)S(C)(=O)=O [Example 171, N-{5-cyclopropyl-2-(4-fluorophenyl)-3-[4-(trifluoromethyl)-1H-imidazol-2-yl]-1-benzofuran-6-yl}-N-(3-methylbutyl)methanesulfonamide]",–,–,2.86,88.7,7.62,–,7.62,7.62,–,9.27,9.27
"COc1ccc(CN(c2cc3oc(-c4ccc(F)cc4)c(-c4nc(C)c(C)[nH]4)c3cc2C2CC2)S(C)(=O)=O)cc1 [Example 186, N-[5-cyclopropyl-3-(4,5-dimethyl-1H-imidazol-2-yl)-2-(4-fluorophenyl)-1-benzofuran-6-yl]-N-(4-methoxybenzyl)methanesulfonamide]",–,–,4.5,4.5,–,–,–,–,–,–,–
"Cc1nc(-c2c(-c3ccc(F)cc3)oc3cc(NS(C)(=O)=O)c(C4CC4)cc23)[nH]c1C [Example 192, N-[5-cyclopropyl-3-(4,5-dimethyl-1H-imidazol-2-yl)-2-(4-fluorophenyl)-1-benzofuran-6-yl]methanesulfonamide]",–,–,10.3,18,–,–,–,–,–,–,–

# From patent publication US20160355530A1, “HEPATITIS C INHIBITORS AND USES THEREOF” (AbbVie Inc., priority 2010, published 2016)
